Experimental data as given in PMC8589421, “Impact of Type II LRRK2 inhibitors on signaling and mitophagy” (Biochemical Journal, 2021).

Experiments:
[1] = test system: basal mitophagy, LRRK2 knock-out MEFs; experiment: mito-QC basal mitophagy in LRRK2 knock-out primary MEFs; type: cell-based, mouse; details: 24 h
Description: To assess mitophagy, wild type, G2019S knock in, and LRRK2 knock out primary mouse embryonic fibroblasts (MEFs) were derived, from time-mated pregnant females at E12.5 as previously described. Briefly, cells were plated on glass coverslips and incubated with DMEM (Gibco, 11960-044) supplemented with 10% FBS, 2 mM L-Glutamine (Gibco, 2503-081), 1% non-essential amino acids (Gibco, 11140-035), 1% Antibiotics (Penicillin/Streptomycin 100 U/ml penicillin and 100 µg/ml streptomycin; Gibco), and 150 µM β-Mercaptoethanol (Gibco, 21985-023) at 37°C under a humidified 5% CO2 atmosphere. […] GSK3357679A 100 nM (Ding et al., in prep) was used as a positive control. At the end of the treatment, MEFs were briefly washed twice in DPBS (Gibco, 14190-094), and fixed in 3.7% Paraformaldehyde pH 7.00 (Sigma, P6148), 200 mM HEPES, for 20 min. Cells were then washed two times with DMEM, 10 mM HEPES, and then incubated for 10 min with DMEM, 10 mM HEPES. […] Images were acquired using a Nikon Eclipse Ti-S fluorescence microscope with a 63× objective. Images were analyzed using the mito-QC counter as previously described. Experiments were performed in 3–4 independent experiments and data was analyzed with a one-way ANOVA followed by a Dunnett's multiple comparison test using the GraphPad Prism software (version 8.4.3 (686)).

Rab10 phosphorylation = Rab10 phosphorylation in primary human neutrophils; type: cell-based; details: primary human neutrophils from two donors, 45 min
Description: Cell extracts were mixed with a quarter of a volume of NuPage LDS Sample buffer 4× Invitrogen and heated at 95°C for 5 min. […] At the end of electrophoresis, proteins were electrophoretically transferred onto the nitrocellulose membrane (GE Healthcare, Amersham Protran Supported 0.45 µm NC) at 100 V for 90 min on ice in the transfer buffer (48 mM Tris–HCl and 39 mM glycine supplemented with 20% methanol). Transferred membrane was blocked with 5% (w/v) skim milk powder dissolved in TBS-T [20 mM Tris–HCl, pH 7.5, 150 mM NaCl and 0.1% (v/v) Tween 20] at room temperature for 1 h. The membrane was typically cropped into three pieces, namely the ‘top piece’ (from the top of the membrane to 75 kDa), the ‘middle piece’ (between 75 and 30 kDa) and the ‘bottom piece’ (from 30 kDa to the bottom of the membrane). All primary antibodies were used at 1 μg/ml final concentration and incubated in TBS-T containing 5% (by mass) bovine serum albumin with exception of α-tubulin and GAPDH antibodies that were diluted 1 : 5000 and 1 : 2000, respectively. The top piece was incubated with the indicated rabbit anti-LRRK2 phosphorylation site antibody multiplexed with mouse anti-LRRK2 C-terminus total antibody. […] Protein bands were acquired via near infrared fluorescent detection using the Odyssey CLx imaging system and quantified using the Image Studio software. […]

[2] = test system: Dundee panel of 140 protein kinases; experiment: Kinase profiling; type: biochemical
Description: […] Results for each kinase are presented as the mean kinase activity ±S.D. for an assay undertaken in duplicate relative to a control kinase assay in which the inhibitor was omitted. Abbreviations and assay conditions used for each kinase are available (http://www.kinase-screen.mrc.ac.uk/services/premier-screen).

## Cc1ccc(C(=O)Nc2ccc(CN3CCN(C)CC3)c(C(F)(F)F)c2)cc1C#Cc1cnc2[nH]ncc2c1 [GZD-824]
[1]
  impact on basal mitophagy in LRRK2 knock-out cells: neither GZD-824 or GSK3357679A impacted basal mitophagy
Rab10 phosphorylation
  concentration giving maximal inhibition of Rab10 phosphorylation: 300 nM
[2]; 0.1 μM inhibitor
  number of the 140 kinases assayed suppressed by over 80%: 22
[2]; 1 μM inhibitor
  number of the 140 kinases assayed suppressed by over 80%: 43
